One substance from US8974819B2, “Sustained-release chitosan capsules comprising chitosan and phytic acid” (priority 2007, dated 2015) can be followed below.

One experiment deals with diabetic mouse. The experiment in a line: Blood glucose level after administration to diabetic mice. The experiment is classed as in vivo, Balb-c strain male mice. As to conditions: subcutaneous injection, 1 IU/kg. As to the method: Six-week old Balb-c strain male mice were used. Streptozotocin was dissolved in a 0.1 mM sodium chloride buffer at a concentration of 30 mg/mL, followed by subcutaneously injecting into the […] at a dosage of 65 mg/kg so as to induce diabetes. The male mice showing a blood glucose level of 470±40 mg/dL over two consecutive days were selected and the experiment was performed. The diabetic mice were starved for 12 hours before the experiment was started.
After the capsules showing the most preferable result were selected from Experimental Example 7 and Comparative Experimental Example 5, respectively, each capsule was orally administered to the diabetic mouse established in Preparative Example 4 and a blood glucose level was measured. […]
AAC (area above the blood glucose level-time curve) is to be numerically expressed the area above the blood glucose level-time curve by using a linear trapezoidal rule. […] F is relative bioavailability of a drug, which is calculated by multiplying the AAC value in case of the oral administration of insulin by the amount of insulin subcutaneously injected, dividing the resulting value by the AAC value in case of the subcutaneous injection of insulin, and dividing the resulting value by the amount of insulin orally administered. […]

The next experiment deals with diabetic rats. The experiment in a line: Blood glucose lowering effect by dosage for 4 hours in diabetic rats. The experiment is classed as in vivo, Male Sprague-Dawley (SD) rats. The following applies: diabetic SD rats, subcutaneous injection (PC, positive control).

As for Insulin, the values for the blood glucose level result in the experiment with diabetic mouse and with diabetic rats were “rapidly decreased” and “most rapidly decreased”, respectively.
